Data: US10738035B2, “Hepatitis B antiviral agents” (Enanta Pharmaceuticals, Inc., priority 2015, dated 2020)

Columns and labels:
hepatitis B virus (HBV) = test: HepAD38 antiviral assay (viral product accumulation, EC50); settings: HePAD38, 120 h, read-out: HepAD38 EC50
Procedure: (§1) Briefly, cells are passaged upon attaining confluency in DMEM/F12 media in the presence of 10% FBS, Penn/Strep, 250 μg/mL G418, and 1 μg/ml tetracycline. Novel compounds are screened by first washing cells three times with PBS to remove tetracycline, and plating in 96 well plates at 35,000 cells/well. Compounds dissolved in DMSO are then diluted 1:200 into wells containing cells. Five days after compound addition, material is harvested for analysis.
On harvest day, virion DNA is obtained by lysing with Sidestep Lysis and Stabilization Buffer and then quantified via quantitative real time PCR. Commercially available ELISA kits are used to quantitate the viral proteins HBsAg (Alpco) or HbeAg (US Biological) by following the manufacturer's recommended protocol after diluting samples to match the linear range of their respective assays.

[1] = Compound toxicity, ATPLite (CC50); settings: human, HepAD38 cells
Procedure: as §1
Compound toxicity is evaluated by seeding cells at 15,000 cells/well and treating with compound as described above.

SMILES	EC50 (hepatitis B virus (HBV)) [µM]	CC50 at 3 days [1] [µM]
O=S(=O)(c1c(Cl)ccc2c(Nc3cc(F)c(F)c(F)c3)n[nH]c12)N1CCC(O)CC1 [Example 1]	> 10	> 30
Cn1nc(NC(=O)Nc2cc(F)c(F)c(F)c2)cc1S(=O)(=O)N1CCC(O)CC1 [Example 2]	1 to 10	> 30
Cn1nc(NC(=O)N2CCC(O)CC2)cc1C(=O)Nc1cc(F)c(F)c(F)c1 [Example 3]	< 1	> 30
O=S(=O)(c1cc2oc(Nc3cc(F)c(F)c(F)c3)nc2cc1Cl)N1CCC(O)CC1 [Example 4]	1 to 10	< 10
Cn1nc(NS(=O)(=O)C2CCC(O)CC2)cc1C(=O)Nc1cc(F)c(F)c(F)c1 (stereo not drawn) [Example 5]	< 1	> 30
Cn1c(NC(=O)N2CCC(O)CC2)cnc1C(=O)Nc1cc(F)c(F)c(F)c1 [Example 6]	> 10	> 10
O=C(Nc1cc(F)c(F)c(F)c1)c1ccc(Cl)c(NC(=O)N2CCC(O)CC2)c1 [Example 7]	1 to 10	> 30
Cn1nc(NC(=O)N2CCC(O)CC2)cc1-c1ncc(-c2cc(F)c(F)c(F)c2)[nH]1 [Example 8]	> 10	> 10
O=C(Nc1cc(F)c(F)c(F)c1)c1cc(NC(=O)N2CCC(O)CC2)no1 [Example 9]	> 10	< 10
Cn1cc(NC(=O)N2CCC(O)CC2)nc1C(=O)Nc1cc(F)c(F)c(F)c1 [Example 10]	> 10	> 30
Cn1nc(NC(=O)N2CCC(O)CC2)c(Cl)c1C(=O)Nc1cc(F)c(F)c(F)c1 [Example 11]	1 to 10	> 30
Cn1nc(NS(=O)(=O)N2CCC(OCc3ccccc3)CC2)cc1C(=O)Nc1cc(F)c(F)c(F)c1 [Example 12]	1 to 10	10 to 30
Cn1nc(C(=O)Nc2cc(F)c(F)c(F)c2)cc1NC(=O)N1CCC(O)CC1 [Example 13]	> 10	> 10
Cn1nc(NC(=O)C2CCC(O)CC2)cc1C(=O)Nc1cc(F)c(F)c(F)c1 (stereo not drawn) [Example 14]	1 to 10	> 30
Cn1nc(NC(=O)OCCO)cc1C(=O)Nc1cc(F)c(F)c(F)c1 [Example 15]	< 1	> 30
Cn1nc(NC(=O)N2CCCCC2)cc1C(=O)Nc1cc(F)c(F)c(F)c1 [Example 16]	1 to 10	< 10
Cn1nc(NC(=O)N2CCC(F)CC2)cc1C(=O)Nc1cc(F)c(F)c(F)c1 [Example 17]	1 to 10	< 10
Cn1nc(NC(=O)N2CCC(F)(F)CC2)cc1C(=O)Nc1cc(F)c(F)c(F)c1 [Example 18]	1 to 10	> 30
Cn1nc(NC(=O)N2CCC(C)(O)CC2)cc1C(=O)Nc1cc(F)c(F)c(F)c1 [Example 19]	1 to 10	> 30
Cn1nc(NC(=O)N2CCOCC2)cc1C(=O)Nc1cc(F)c(F)c(F)c1 [Example 20]	1 to 10	> 30
CN(CCO)C(=O)Nc1cc(C(=O)Nc2cc(F)c(F)c(F)c2)n(C)n1 [Example 21]	1 to 10	> 30
CN(C(=O)Nc1cc(C(=O)Nc2cc(F)c(F)c(F)c2)n(C)n1)C1CC1 [Example 22]	> 10	> 30
CN(Cc1ccccc1)C(=O)Nc1cc(C(=O)Nc2cc(F)c(F)c(F)c2)n(C)n1 [Example 23]	1 to 10	< 10
COCCNC(=O)Nc1cc(C(=O)Nc2cc(F)c(F)c(F)c2)n(C)n1 [Example 24]	1 to 10	> 30
CN(C)CCNC(=O)Nc1cc(C(=O)Nc2cc(F)c(F)c(F)c2)n(C)n1 [Example 25]	> 10	> 30
Cn1nc(NC(=O)NCC2(C)CC2)cc1C(=O)Nc1cc(F)c(F)c(F)c1 [Example 26]	< 1	> 30
Cn1nc(NC(=O)N(CCO)CCO)cc1C(=O)Nc1cc(F)c(F)c(F)c1 [Example 27]	> 10	> 30
